Measured values reported in patent US20130171105A1, “CANCER THERAPY USING A COMBINATION OF A HSP90 INHIBITORY COMPOUND AND A TOPOISOMERASE II INHIBITOR” (SYNTA PHARMACEUTICALS CORP., priority 2010, published 2013).

How the values were obtained:
[1] = tested on: K562 chronic myelogenous leukemia cells; assay: Cell viability, Alamar Blue assay; conditions: Homo sapiens, K562, 72 h, read-out: IC50 (cell viability)
Procedure: Human K562 chronic myelogenous leukemia cells (American Type Culture Collection) were grown in RPMI medium with 2 mM L-glutamine, antibiotics (100 IU/ml penicillin and 100 μg/ml streptomycin) and 10% fetal bovine serum (Sigma Aldrich). Cells were maintained at 37° C., 5% CO2 atmosphere and subcultured at 1×10^6 cells/mL.
Cell viability was measured using the Alamar Blue assay (Invitrogen). In brief, cells were plated in 96-well plates in triplicate at 2000 cells per well and incubated at 37° C., 5% CO2 atmosphere for 24 hr prior to the addition of drug or vehicle (0.3% DMSO) to the culture medium. After 72 hr, 10 μl/well Alamar Blue was added to the wells and incubated for an additional 3 hr at 37° C., 5% CO2 atmosphere. Fluorescence (560Ex/590Em nM) was measured with a SpectraMax microplate reader (Molecular Devices) and the resulting data were used to calculate cell viability, normalized to vehicle control.
After 72 hr exposure to drug, cell viability was measured and results were fit to a four parameter logistic model (XLFit, ID Business Solutions) shown in FIG. 1.

topoisomerase II = biological target: T1, topoisomerase II (Homo sapiens, UniProt P11388); assay: kDNA decatenation assay (Topo II assay); format: biochemical; set-up: key: + (some inhibition); + (some inhibition) < ++ < +++; ++ < +++ < ++++; ++++ (complete inhibition); conditions: kDNA substrate, 37° C. for 30 min, agarose gel
T1 construct: purchased TopoGEN, Inc
Procedure: The ability of compounds of the formulae (I) or (Ia) to inhibit the activity of topoisomerase II was examined with a kDNA decatenation assay (TopoGEN, Inc. Port Orange, Fla.). Substrate kDNA was mixed with compounds and incubated at 37° C. for 30 min. The reaction was stop by adding ⅕ volume of stop buffer. 20 μl of the reaction was loaded on 1% agarose gel. Image of decatenation of kDNA by compounds was taken by Kodak Image Station 440. Table 1 indicates the ability of compound 1 inhibiting the activity of topoisomerase II.

T1 sequence (P11388 whole entry): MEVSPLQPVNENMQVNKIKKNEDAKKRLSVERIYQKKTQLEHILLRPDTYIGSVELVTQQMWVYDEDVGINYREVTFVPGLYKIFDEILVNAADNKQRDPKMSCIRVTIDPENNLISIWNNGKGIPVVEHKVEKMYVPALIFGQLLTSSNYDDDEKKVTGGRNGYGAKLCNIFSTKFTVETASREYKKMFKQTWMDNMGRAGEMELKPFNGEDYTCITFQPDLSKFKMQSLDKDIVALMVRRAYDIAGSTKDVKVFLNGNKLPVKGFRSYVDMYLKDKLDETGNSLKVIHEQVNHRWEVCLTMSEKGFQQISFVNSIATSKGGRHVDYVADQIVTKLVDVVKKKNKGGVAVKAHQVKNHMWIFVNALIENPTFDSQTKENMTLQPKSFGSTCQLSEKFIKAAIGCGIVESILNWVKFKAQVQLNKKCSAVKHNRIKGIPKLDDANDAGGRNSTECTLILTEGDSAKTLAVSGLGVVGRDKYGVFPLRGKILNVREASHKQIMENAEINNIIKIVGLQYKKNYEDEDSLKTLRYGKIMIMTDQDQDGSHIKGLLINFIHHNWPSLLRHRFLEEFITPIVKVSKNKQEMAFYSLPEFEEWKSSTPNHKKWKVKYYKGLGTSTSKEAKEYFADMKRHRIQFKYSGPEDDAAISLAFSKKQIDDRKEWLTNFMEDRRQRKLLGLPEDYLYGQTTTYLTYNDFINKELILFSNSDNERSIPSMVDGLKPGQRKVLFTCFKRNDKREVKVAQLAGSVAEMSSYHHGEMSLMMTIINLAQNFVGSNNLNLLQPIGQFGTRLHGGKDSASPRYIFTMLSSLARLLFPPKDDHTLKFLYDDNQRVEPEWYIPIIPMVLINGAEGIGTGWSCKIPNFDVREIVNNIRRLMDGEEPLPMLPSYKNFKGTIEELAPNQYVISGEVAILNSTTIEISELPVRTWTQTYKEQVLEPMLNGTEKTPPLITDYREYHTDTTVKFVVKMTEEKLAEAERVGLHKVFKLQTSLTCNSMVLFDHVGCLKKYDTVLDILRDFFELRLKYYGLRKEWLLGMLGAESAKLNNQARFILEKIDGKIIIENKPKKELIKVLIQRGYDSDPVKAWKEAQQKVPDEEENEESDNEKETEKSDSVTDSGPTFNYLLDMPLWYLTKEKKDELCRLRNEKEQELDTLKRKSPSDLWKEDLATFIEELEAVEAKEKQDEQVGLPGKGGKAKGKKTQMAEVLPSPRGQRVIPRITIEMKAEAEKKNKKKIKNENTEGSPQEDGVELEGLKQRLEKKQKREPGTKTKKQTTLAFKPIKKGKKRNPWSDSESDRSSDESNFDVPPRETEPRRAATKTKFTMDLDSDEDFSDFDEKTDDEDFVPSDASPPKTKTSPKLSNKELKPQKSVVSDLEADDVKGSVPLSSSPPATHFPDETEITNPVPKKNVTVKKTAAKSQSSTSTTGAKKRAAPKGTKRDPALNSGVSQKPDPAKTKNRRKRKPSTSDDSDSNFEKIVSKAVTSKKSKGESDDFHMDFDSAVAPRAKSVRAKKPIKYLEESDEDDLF

Which IC50 [1] does the source give for `CC(C)c1cc(-c2nnc(O)n2-c2ccc3c(ccn3C)c2)c(O)cc1O` [Compound 1, 3-(2,4-DIHYDROXY-5- ISOPROPYL-PHENYL)-4-(1- METHYL-INDOL-5-YL)-5- HYDROXY-[1,2,4] TRIAZOLE] here?
Its IC50 is 16 nM.

And the “Topo II assay (effectiveness at inhibition)” value (topoisomerase II)?
Its value is “+”.

How did the IC50 [1] turn out when `COc1cc([C@@H]2c3cc4c(cc3[C@@H](O[C@@H]3O[C@@H]5CO[C@@H](C)O[C@H]5[C@H](O)[C@H]3O)[C@H]3COC(=O)[C@H]23)OCO4)cc(OC)c1O` [etoposide, reference compound] was run?
The IC50 was 21 nM.
